What was measured:
[1] = molecular target: Bile acid receptor (Homo sapiens) (UniProt Q96RI1); assay: Agonist activity at FXR in human HepG2 cells at 3 uM relative to control; conditions: filed as agonist
[2] = molecular target: Bile acid receptor (Homo sapiens) (UniProt Q96RI1); assay: Agonist activity at FXR in human HepG2 cells coexpressing BSEP at 0.3 uM relative to control; conditions: filed as agonist
Bile acid receptor [3] = molecular target: T1, Bile acid receptor (Homo sapiens, UniProt Q96RI1); assay: Agonist activity at FXR (unknown origin) incubated for 180 mins by TR-FRET assay
T1 sequence (Q96RI1 whole entry): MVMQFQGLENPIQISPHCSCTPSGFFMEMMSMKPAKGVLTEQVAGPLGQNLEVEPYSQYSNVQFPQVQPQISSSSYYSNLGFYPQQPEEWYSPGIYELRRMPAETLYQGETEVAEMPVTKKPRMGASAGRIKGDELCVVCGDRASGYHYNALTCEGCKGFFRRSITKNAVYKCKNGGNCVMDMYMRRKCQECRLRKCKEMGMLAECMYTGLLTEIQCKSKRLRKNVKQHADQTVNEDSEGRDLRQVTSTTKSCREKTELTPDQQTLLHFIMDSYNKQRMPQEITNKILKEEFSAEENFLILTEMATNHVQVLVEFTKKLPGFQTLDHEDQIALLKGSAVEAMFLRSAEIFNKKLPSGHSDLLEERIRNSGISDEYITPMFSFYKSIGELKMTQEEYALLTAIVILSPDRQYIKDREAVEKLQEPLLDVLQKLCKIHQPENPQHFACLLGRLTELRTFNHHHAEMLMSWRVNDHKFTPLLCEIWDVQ

Bile acid receptor [4] = molecular target: T1, Bile acid receptor; assay: Agonist activity at FXR in HEK293T cells incubated for 24 hrs by Steady-Glo luciferase assay; type: cell-based
Bile acid receptor [5] = molecular target: T1, Bile acid receptor; assay: Agonist activity at FXR in human HeLa cells incubated for 24 hrs by Dual-Glo luciferase assay; type: cell-based; conditions: hela
[6] = molecular target: T2, Bifunctional epoxide hydrolase 2 (Homo sapiens, UniProt P34913); assay: Inhibition of sEH (unknown origin)
T2 sequence (P34913 whole entry): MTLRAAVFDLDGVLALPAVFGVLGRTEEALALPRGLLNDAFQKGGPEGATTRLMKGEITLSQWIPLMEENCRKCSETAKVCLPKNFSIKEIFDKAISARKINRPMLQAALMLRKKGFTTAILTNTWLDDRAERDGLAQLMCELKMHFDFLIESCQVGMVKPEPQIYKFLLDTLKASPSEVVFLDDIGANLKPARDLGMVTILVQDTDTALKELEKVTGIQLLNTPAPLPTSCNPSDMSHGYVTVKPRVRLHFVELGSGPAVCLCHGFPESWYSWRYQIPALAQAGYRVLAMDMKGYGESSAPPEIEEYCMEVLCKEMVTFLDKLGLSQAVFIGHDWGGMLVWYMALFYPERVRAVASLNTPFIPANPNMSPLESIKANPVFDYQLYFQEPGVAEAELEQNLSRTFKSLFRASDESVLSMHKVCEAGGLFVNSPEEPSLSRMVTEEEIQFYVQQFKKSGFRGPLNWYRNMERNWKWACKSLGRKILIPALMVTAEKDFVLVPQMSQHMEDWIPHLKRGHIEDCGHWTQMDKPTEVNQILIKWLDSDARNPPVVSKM

Bile acid receptor [7] = molecular target: T1, Bile acid receptor; assay: Agonist activity at FXR (unknown origin)
[8] = Cmax in Sprague-Dawley rat serum at 5 mg/kg, po measured up to 24 hrs by LC-MS-MS analysis; type: ADME, organism-based; design: dose 5 mg/kg, time < 24 hrs, route po
Bile acid receptor [9] = molecular target: T1, Bile acid receptor; assay: Agonist activity at FXR in HEK293T cells by steady-glo luciferase assay; type: cell-based
[10] = Cmax in Sprague-Dawley rat serum at 1 mg/kg, iv measured up to 24 hrs by LC-MS-MS analysis; type: ADME, organism-based; design: time < 24 hrs, dose 1 mg/kg, route iv
[11] = AUC(0 to 24 hrs) in Sprague-Dawley rat serum at 1 mg/kg, iv measured up to 24 hrs by LC-MS-MS analysis; type: ADME, organism-based; design: dose 1 mg/kg, time < 24 hrs, route iv
[12] = molecular target: T3, Bile acid receptor (Homo sapiens) (UniProt Q96RI1); assay: Agonist activity at FXR in HEK293 cells assessed as maximum efficacy relative to control; type: cell-based; conditions: filed as agonist
T3 sequence (whole entry): T1 sequence (Q96RI1 whole entry)

[13] = Cmax in Sprague-Dawley rat liver at 5 mg/kg, po measured up to 24 hrs by LC-MS-MS analysis; type: ADME, organism-based; design: time < 24 hrs, dose 5 mg/kg, route po
[14] = AUC(0 to 24 hrs) in Sprague-Dawley rat serum at 5 mg/kg, po measured up to 24 hrs by LC-MS-MS analysis; type: ADME, organism-based; design: dose 5 mg/kg, time < 24 hrs, route po
[15] = AUC(0 to 24 hrs) in Sprague-Dawley rat liver at 5 mg/kg, po measured up to 24 hrs by LC-MS-MS analysis; type: ADME, organism-based; design: dose 5 mg/kg, time < 24 hrs, route po; conditions: in vivo
[16] = Oral bioavailability in Sprague-Dawley rat at 5 mg/kg administered via gavage by LC-MS/MS analysis; type: ADME, organism-based; conditions: in vivo
Bile acid receptor [17] = molecular target: T1, Bile acid receptor; assay: Agonist activity at FXR in HEK293T cells by lanthascreen TR-FRET assay; type: cell-based
Bile acid receptor [18] = molecular target: T1, Bile acid receptor; assay: Agonist activity at human FXR
[19] = molecular target: Voltage-gated inwardly rectifying potassium channel KCNH2 (Homo sapiens, UniProt Q12809); assay: Inhibition of hERG; type: toxicity
[20] = Metabolic stability in human liver microsomes assessed as half life in presence of NADPH incubated up to 60 mins by LC-MS/MS analysis; type: ADME, Microsome

Chain of Voltage-gated inwardly rectifying potassium channel KCNH2 (Q12809 whole entry): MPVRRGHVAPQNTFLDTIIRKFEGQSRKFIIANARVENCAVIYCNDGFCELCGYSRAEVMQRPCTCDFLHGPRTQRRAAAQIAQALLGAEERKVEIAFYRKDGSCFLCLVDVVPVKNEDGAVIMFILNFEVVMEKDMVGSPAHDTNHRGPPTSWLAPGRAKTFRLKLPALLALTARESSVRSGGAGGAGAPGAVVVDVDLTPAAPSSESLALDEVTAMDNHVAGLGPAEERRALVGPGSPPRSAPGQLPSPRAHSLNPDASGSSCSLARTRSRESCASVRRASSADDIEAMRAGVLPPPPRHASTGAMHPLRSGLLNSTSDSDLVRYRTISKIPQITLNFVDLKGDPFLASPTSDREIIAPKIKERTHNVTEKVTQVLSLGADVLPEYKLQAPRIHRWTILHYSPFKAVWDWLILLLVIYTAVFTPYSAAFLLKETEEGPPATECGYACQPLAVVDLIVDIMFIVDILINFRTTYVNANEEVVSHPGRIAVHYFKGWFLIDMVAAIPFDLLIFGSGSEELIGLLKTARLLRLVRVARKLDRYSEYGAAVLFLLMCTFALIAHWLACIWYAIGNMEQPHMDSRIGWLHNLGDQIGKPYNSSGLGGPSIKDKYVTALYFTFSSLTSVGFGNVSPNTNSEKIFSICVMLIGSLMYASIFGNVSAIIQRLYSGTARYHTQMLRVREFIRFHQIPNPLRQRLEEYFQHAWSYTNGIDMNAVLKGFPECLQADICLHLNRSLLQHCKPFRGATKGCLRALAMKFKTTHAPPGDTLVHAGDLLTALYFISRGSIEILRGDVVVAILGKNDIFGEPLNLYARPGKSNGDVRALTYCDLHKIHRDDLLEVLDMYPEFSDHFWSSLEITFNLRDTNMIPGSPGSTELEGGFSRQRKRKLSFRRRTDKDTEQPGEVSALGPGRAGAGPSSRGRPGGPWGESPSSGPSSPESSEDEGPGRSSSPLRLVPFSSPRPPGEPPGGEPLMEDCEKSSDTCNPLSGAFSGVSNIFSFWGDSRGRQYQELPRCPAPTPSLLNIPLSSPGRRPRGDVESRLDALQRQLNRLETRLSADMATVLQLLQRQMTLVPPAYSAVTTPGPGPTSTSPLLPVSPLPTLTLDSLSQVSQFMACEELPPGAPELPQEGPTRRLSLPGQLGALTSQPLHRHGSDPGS

O=C(O)c1cc(F)c2nc(N3C[C@@H]4CC[C@H]3C[C@@H]4OCc3c(-c4ccccc4OC(F)(F)F)noc3C3CC3)sc2c1
Activity [1]: 125%
Activity [2]: 84%

CS(=O)(=O)NC(=O)c1ccc(N2CCC3(CC2)CC(OCc2c(-c4ccccc4OC(F)(F)F)noc2C2CC2)CO3)nc1 (stereo unspecified)
EC50 (Bile acid receptor [3]): 26.9 nM

CC(C)COc1ccc(-c2nnc(-c3ccc(C(=O)O)cc3)o2)cc1
EC50 (Bile acid receptor [4]): 205 nM

O=C(O)c1ccc([C@@H]2C[C@H]2c2ccc(OCc3c(-c4c(Cl)cccc4Cl)noc3C3CC3)cc2Cl)cc1
Activity [1]: 100%
Activity [2]: 60%

O=C(O)c1ccc2nc(N3C[C@@H]4C[C@H]3C[C@H]4OCc3c(-c4c(Cl)cccc4Cl)noc3C3CC3)sc2c1
Activity [1]: 185%
Activity [2]: 166%

CC(C)(C)c1ccc(C(=O)Nc2ccc3ccn(Cc4ccc(C(=O)O)cc4)c3c2)cc1
EC50 (Bile acid receptor [5]): 3500 nM
IC50 [6]: 2900 nM

Cc1cc(NS(=O)(=O)N2[C@@H]3CC[C@H]2C[C@@H](OCc2c(-c4c(Cl)cccc4Cl)noc2C2CC2)C3)ccc1C(=O)O
EC50 (Bile acid receptor [7]): < 50 nM

O=C(O)c1ccc(-c2csc(N3CCC(OCc4c(-c5c(Cl)cccc5Cl)noc4C4CC4)CC3)n2)cc1
Cmax [8]: 252 ng/mL
EC50 (Bile acid receptor [9]): 12 nM
Cmax [10]: 4340 ng/mL
AUC(0-t) at 24 h [11]: 2410 ng·h/mL
Emax [12]: 101%
Cmax [13]: 3370 ng/g
AUC(0-t) at 24 h [14]: 1180 ng·h/mL
AUC [15]: 14971 ng·h/g

O=C(O)c1ccc2c(c1)Oc1ccc(OCc3c(-c4ccccc4OC(F)(F)F)noc3C3CC3)nc1C1(CC1)C2
bioavailability [16]: 71.3%

O=C(O)c1ccc(-c2nc(N3[C@@H]4CC[C@H]3C[C@@H](OCc3c(-c5c(Cl)cccc5Cl)noc3C3CC3)C4)no2)cc1F
EC50 (Bile acid receptor [7]): < 50 nM

CCc1onc(-c2c(Cl)cccc2Cl)c1COc1ccc(C2(C)CC2c2ccc(C(=O)O)cc2)c(Cl)c1 (stereo unspecified)
EC50 (Bile acid receptor [17]): < 100 nM

CC(C)Oc1cc(C(=O)NS(=O)(=O)N2CCCC2)cc2sc(O[C@@H]3CO[C@H]4[C@H]3OC[C@H]4OCc3c(-c4c(Cl)cccc4Cl)noc3C3CC3)nc12
EC50 (Bile acid receptor [18]): < 30 nM

COc1cc(C(=O)O)ccc1Cn1ccc2ccc(NC(=O)c3ccc(C(C)(C)C)cc3)cc21
EC50 (Bile acid receptor [5]): 260 nM
IC50 [6]: 1700 nM

Cc1cc(OCc2c(-c3c(Cl)cccc3Cl)noc2C2CC2)ccc1C1=NOC(c2cc(C(=O)O)nn2C)C1 (stereo unspecified)
EC50 (Bile acid receptor [9]): 10 nM
IC50 [19]: > 30000 nM

O=C(O)c1ccc(-c2csc(N3[C@@H]4CC[C@H]3C[C@@H](OCc3c(-c5ccccc5OC(F)(F)F)noc3C3CC3)C4)n2)cc1C(F)(F)F
half-life [20]: 2.5 h

O=C(O)c1ccc2c(c1)CN(C(=O)N1[C@@H]3CC[C@H]1C[C@@H](OCc1c(-c4c(Cl)cccc4Cl)noc1C1CC1)C3)C2
EC50 (Bile acid receptor [9]): 10 nM

O=S(O)c1cc(F)c2nc(N3[C@@H]4CC[C@H]3C[C@@H](OCc3c(-c5ccccc5OC(F)(F)F)noc3C3CC3)C4)sc2c1
EC50 (Bile acid receptor [9]): < 500 nM

O=C(O)c1ccc2nc(N3CCC(OCc4c(-c5c(Cl)cccc5Cl)noc4C4CC4)C4CC43)sc2c1 (stereo unspecified)
Activity [1]: 125%
Activity [2]: 64%

C[C@H]1CC(OCc2c(-c3c(Cl)cccc3Cl)noc2C2CC2)C[C@H](C)N1c1nc2ccc(C(=O)O)cc2s1 (stereo partly specified)
Activity [1]: 88%
Activity [2]: 100%

CCn1nc(C(=O)O)cc1C1CC(c2ccc(OCc3c(-c4c(Cl)cccc4Cl)noc3C3CC3)cc2C)=NO1 (stereo unspecified)
EC50 (Bile acid receptor [9]): 23 nM
IC50 [19]: > 30000 nM
